# From patent US7615543B2, “Treatment and prevention of tissue damage” (Pentraxin Therapeutics Limited, priority 2002, dated 2009)
# Where two headings read alike, the source gives them in different places.
# What was measured:
# SAP [1] = biological target: T1, SAP (Homo sapiens, UniProt P02743); design: human SAP expressed in human SAP transgenic mice; host or cells: human SAP transgenic mice; circulation in vivo; settings: cited from earlier work
# SAP [2] = biological target: T1, SAP; assay: Isothermal calorimetry of CPHPC with SAP; settings: read-out: affinity of binding, SAP and CPHPC
# Description: This phenomenon contrasts sharply with the behaviour in vivo of the closely related molecule, serum amyloid P component (SAP), the other member of the human pentraxin protein family. SAP shares with CRP the homopentameric structure consisting of 5 identical protomers non-covalently associated in a disc like configuration, with a single calcium-dependent ligand binding site on one face of each subunit. […] The handling of aggregated human SAP in vivo may thus differ markedly from that of aggregated CRP. […] Thus compounds that are both bound by CRP with higher affinity and that cross-link it in more avid stable complexes, may cause accelerated clearance from the plasma in vivo.
# mouse SAP = biological target: T2, mouse SAP (Mus musculus, UniProt P12246); settings: CPHPC administered to mice; cited from earlier work
# T2 construct: host or cells: mice, endogenous circulating SAP
# T2 sequence (P12246 21-224): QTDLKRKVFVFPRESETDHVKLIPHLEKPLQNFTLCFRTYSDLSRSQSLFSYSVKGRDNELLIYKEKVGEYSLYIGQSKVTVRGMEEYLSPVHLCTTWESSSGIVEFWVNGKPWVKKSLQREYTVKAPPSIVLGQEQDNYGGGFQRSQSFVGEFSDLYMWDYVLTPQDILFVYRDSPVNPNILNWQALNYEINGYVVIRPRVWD
# CRP [3] = biological target: T3, CRP (Homo sapiens, UniProt P02741); assay: Gel filtration (molecular sieve) chromatography of CRP molecular assembly; assay type: binding; settings: 10 fold molar excess of drug
# T3 sequence (P02741 19-224): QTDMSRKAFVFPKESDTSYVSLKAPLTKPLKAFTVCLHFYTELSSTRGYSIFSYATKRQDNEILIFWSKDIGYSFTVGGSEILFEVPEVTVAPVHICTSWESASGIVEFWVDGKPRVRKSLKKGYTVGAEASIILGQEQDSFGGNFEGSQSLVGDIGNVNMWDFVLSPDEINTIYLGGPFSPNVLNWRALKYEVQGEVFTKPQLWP
# Description: The ligand binding sites on each of the 5 protomers in the CRP molecule are all on the same face of the disc-like pentameric assembly of the native protein.
# CRP [4] = biological target: T3, CRP
# Description: The Roche MIRA automated immunoassay for CRP (64) depends on recognition by a monoclonal antibody of a calcium-dependent epitope on the CRP molecule.
# T1 sequence (P02743 20-223): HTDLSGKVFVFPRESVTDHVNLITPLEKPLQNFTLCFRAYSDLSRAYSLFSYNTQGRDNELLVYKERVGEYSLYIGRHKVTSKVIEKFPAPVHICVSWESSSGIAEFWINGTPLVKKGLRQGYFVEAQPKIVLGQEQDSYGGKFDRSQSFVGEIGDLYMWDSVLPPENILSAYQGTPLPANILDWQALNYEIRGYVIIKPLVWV
compound,measurement,setting,value
"O=C(O)[C@H]1CCCN1C(=O)CCCCC(=O)N1CCC[C@@H]1C(=O)O [CPHPC, (R)-1-[6-[(R)-2-Carboxy-pyrrolidin-1-yl]-6-oxo-hexanoyl]pyrrolidine-2-carboxylic acid]",effect on human SAP in vivo,SAP [1]; human SAP transgenic mice,dramatically clears
same,clearance of SAP-CPHPC complexes from the circulation in vivo,SAP [1]; pairs of SAP molecules cross linked by CPHPC,very rapidly cleared
same,Kd,SAP [2],10 nM
same,effect on clearance of mouse SAP in vivo,mouse SAP,does not accelerate clearance
C[N+](C)(C)CCOP(=O)([O-])O [phosphocholine],Molecular assembly of CRP,CRP [3],Single pentamers
D-Pro-hexanoyl-phosphocholine [DPHPC],reduction of MIRA CRP concentration,"CRP [4]; CRP 100 mg/l, SAP 100 mg/l (~4 μM), DPHPC 400 μM",58%
same,reduction of MIRA CRP concentration,"CRP [4]; CRP 100 mg/l, SAP 100 mg/l (~4 μM), DPHPC 2 mM",89%
same,reduction of MIRA CRP concentration,"CRP [4]; CRP 100 mg/l, SAP 100 mg/l (~4 μM), DPHPC 4 mM",99%
same,effect on apparent CRP concentration in MIRA assay,"CRP [4]; added to isolated pure CRP, no SAP",slightly reduces
same,reduction of MIRA CRP value,"CRP [4]; pure CRP 100 mg/l (~4 μM), DPHPC 400 μM, no SAP",no effect
same,reduction of MIRA CRP value,"CRP [4]; pure CRP 100 mg/l (~4 μM), DPHPC 4 mM, no SAP",91%
same,reduction of MIRA CRP value,"CRP [4]; second experiment: ~4 μM CRP, 1 mM DPHPC, SAP 400 nM",61%
same,reduction of MIRA CRP value,"CRP [4]; second experiment: ~4 μM CRP, 1 mM DPHPC, SAP 800 nM",61%
same,reduction of MIRA CRP value,"CRP [4]; second experiment: ~4 μM CRP, 1 mM DPHPC, SAP 2 μM",73%
same,reduction of MIRA CRP value,"CRP [4]; second experiment: ~4 μM CRP, 1 mM DPHPC, SAP about 4 μM",85%
same,reduction of MIRA CRP concentration,"CRP [4]; second experiment: ~4 μM CRP, 1 mM DPHPC, no SAP",62%
same,reduction of MIRA CRP value,"CRP [4]; whole serum, SAP and CRP both ~4 μM, 4 mM DPHPC",44%
same,enhancement by SAP of the effect of DPHPC alone in MIRA,"CRP [4]; whole serum, SAP concentrations lower than 2 μM, 4 mM DPHPC",no enhancement
same,reduction of MIRA CRP value,"CRP [4]; whole serum, ~4 μM CRP, 2 μM SAP, 4 mM DPHPC",29%
same,reduction of CRP detectable in MIRA assay,"CRP [4]; whole serum, ~4 μM CRP, 4 mM DPHPC, no added SAP",19%
